Columns and labels:
Assay in all cases: relative viability (nuclei count vs DMSO), 5 days (fraction); higher = more cells survive
CAL-12T = test system: CAL-12T
Method in brief: (§1)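 Lung cancer cell lines were pin-tool dosed in 1536-well plates on the day after seeding, with either a lone drug or a fixed anchor-drug dose plus five library-drug doses (not always all listed) in √10 steps. Nuclei were counted on 4× images after 5 days. Relative viability is the ratio of treated-well to vehicle-well nuclei counts, with each value a median of duplicate plates.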

HOP-62 = test system: HOP-62
Method in brief: as §1

NCI-H322M = test system: NCI-H322M
Method in brief: as §1

ChaGo-K-1 = test system: ChaGo-K-1
Method in brief: as §1

ABC-1 = test system: ABC-1
Method in brief: as §1

NCI-H441 = test system: NCI-H441
Method in brief: as §1

NCI-H358 = test system: NCI-H358
Method in brief: as §1

EMC-BAC-2 = test system: EMC-BAC-2
Method in brief: as §1

LXF-289 = test system: LXF-289
Method in brief: as §1

NCI-H1755 = test system: NCI-H1755
Method in brief: as §1

COR-L 105 = test system: COR-L 105
Method in brief: as §1

NCI-H1975 = test system: NCI-H1975
Method in brief: as §1

NCI-H2126 = test system: NCI-H2126
Method in brief: as §1

NCI-H3122 = test system: NCI-H3122
Method in brief: as §1

NCI-H1915 = test system: NCI-H1915
Method in brief: as §1

NCI-H1666 = test system: NCI-H1666
Method in brief: as §1

HCC-78 = test system: HCC-78
Method in brief: as §1

NCI-H1993 = test system: NCI-H1993
Method in brief: as §1

NCI-H2085 = test system: NCI-H2085
Method in brief: as §1

NCI-H2023 = test system: NCI-H2023
Method in brief: as §1

NCI-H522 = test system: NCI-H522
Method in brief: as §1

EPLC-272H = test system: EPLC-272H
Method in brief: as §1

HCC-15 = test system: HCC-15
Method in brief: as §1

UMC-11 = test system: UMC-11
Method in brief: as §1

**Q.** Which results are given for `COc1cc(N2CCC(C(N)=O)CC2)ccc1Nc1nc(N)c(Cl)c(Nc2ccccc2S(=O)(=O)C(C)C)n1` [HG-5-88-01] + CC(=O)c1c(C)c2cnc(Nc3ccc(N4CCNCC4)cn3)nc2n(C2CCCC2)c1=O [Palbociclib] (partner 0.5 µM)?
**A.** relative viability (CAL-12T; first compound 0.04 µM): 0.509; relative viability (CAL-12T; first compound 0.1265 µM): 0.552; relative viability (CAL-12T; first compound 0.4 µM): 0.405; relative viability (CAL-12T; first compound 1.265 µM): 0.214; relative viability (CAL-12T; first compound 4 µM): 0.211; relative viability (HOP-62; first compound 0.04 µM): 0.428; relative viability (HOP-62; first compound 0.1265 µM): 0.54; relative viability (HOP-62; first compound 0.4 µM): 0.456; relative viability (HOP-62; first compound 1.265 µM): 0.501; relative viability (HOP-62; first compound 4 µM): 0.608; relative viability (NCI-H322M; first compound 0.04 µM): 0.532; relative viability (NCI-H322M; first compound 0.1265 µM): 0.492; relative viability (NCI-H322M; first compound 0.4 µM): 0.477; relative viability (NCI-H322M; first compound 1.265 µM): 0.337; relative viability (NCI-H322M; first compound 4 µM): 0.443; relative viability (ChaGo-K-1; first compound 0.04 µM): 0.931; relative viability (ChaGo-K-1; first compound 0.1265 µM): 0.813; relative viability (ChaGo-K-1; first compound 0.4 µM): 0.881; relative viability (ChaGo-K-1; first compound 1.265 µM): 0.959; relative viability (ChaGo-K-1; first compound 4 µM): 0.881; relative viability (ABC-1; first compound 0.04 µM): 0.667; relative viability (ABC-1; first compound 0.1265 µM): 0.664; relative viability (ABC-1; first compound 0.4 µM): 0.764; relative viability (ABC-1; first compound 1.265 µM): 0.583; relative viability (ABC-1; first compound 4 µM): 0.626; relative viability (NCI-H441; first compound 0.04 µM): 0.209; relative viability (NCI-H441; first compound 0.1265 µM): 0.202; relative viability (NCI-H441; first compound 0.4 µM): 0.146; relative viability (NCI-H441; first compound 1.265 µM): 0.152; relative viability (NCI-H441; first compound 4 µM): 0.172; relative viability (NCI-H358; first compound 0.04 µM): 0.139; relative viability (NCI-H358; first compound 0.1265 µM): 0.131; relative viability (NCI-H358; first compound 0.4 µM): 0.118; relative viability (NCI-H358; first compound 1.265 µM): 0.0962; relative viability (NCI-H358; first compound 4 µM): 0.0785; relative viability (EMC-BAC-2; first compound 0.04 µM): 0.516; relative viability (EMC-BAC-2; first compound 0.1265 µM): 0.543; relative viability (EMC-BAC-2; first compound 0.4 µM): 0.48; relative viability (EMC-BAC-2; first compound 1.265 µM): 0.405; relative viability (EMC-BAC-2; first compound 4 µM): 0.438; relative viability (LXF-289; first compound 0.04 µM): 0.583; relative viability (LXF-289; first compound 0.1265 µM): 0.628; relative viability (LXF-289; first compound 0.4 µM): 0.572; relative viability (LXF-289; first compound 1.265 µM): 0.59; relative viability (LXF-289; first compound 4 µM): 0.636; relative viability (NCI-H1755; first compound 0.04 µM): 0.42; relative viability (NCI-H1755; first compound 0.1265 µM): 0.494; relative viability (NCI-H1755; first compound 0.4 µM): 0.485; relative viability (NCI-H1755; first compound 1.265 µM): 0.419; relative viability (NCI-H1755; first compound 4 µM): 0.455; relative viability (COR-L 105; first compound 0.04 µM): 0.398; relative viability (COR-L 105; first compound 0.1265 µM): 0.419; relative viability (COR-L 105; first compound 0.4 µM): 0.459; relative viability (COR-L 105; first compound 1.265 µM): 0.403; relative viability (COR-L 105; first compound 4 µM): 0.394; relative viability (NCI-H1975; first compound 0.04 µM): 0.597; relative viability (NCI-H1975; first compound 0.1265 µM): 0.643; relative viability (NCI-H1975; first compound 0.4 µM): 0.464; relative viability (NCI-H1975; first compound 1.265 µM): 0.538; relative viability (NCI-H1975; first compound 4 µM): 0.425; relative viability (NCI-H2126; first compound 0.04 µM): 0.363; relative viability (NCI-H2126; first compound 0.1265 µM): 0.352; relative viability (NCI-H2126; first compound 0.4 µM): 0.378; relative viability (NCI-H2126; first compound 1.265 µM): 0.332; relative viability (NCI-H2126; first compound 4 µM): 0.372; relative viability (NCI-H3122; first compound 0.04 µM): 0.161; relative viability (NCI-H3122; first compound 0.1265 µM): 0.138; relative viability (NCI-H3122; first compound 0.4 µM): 0.11; relative viability (NCI-H3122; first compound 1.265 µM): 0.111; relative viability (NCI-H3122; first compound 4 µM): 0.0988; relative viability (NCI-H1915; first compound 0.04 µM): 0.592; relative viability (NCI-H1915; first compound 0.1265 µM): 0.559; relative viability (NCI-H1915; first compound 0.4 µM): 0.588; relative viability (NCI-H1915; first compound 1.265 µM): 0.565; relative viability (NCI-H1915; first compound 4 µM): 0.502; relative viability (NCI-H1666; first compound 0.04 µM): 0.636; relative viability (NCI-H1666; first compound 0.1265 µM): 0.663; relative viability (NCI-H1666; first compound 0.4 µM): 0.623; relative viability (NCI-H1666; first compound 1.265 µM): 0.661; relative viability (NCI-H1666; first compound 4 µM): 0.623; relative viability (HCC-78; first compound 0.04 µM): 0.465; relative viability (HCC-78; first compound 0.1265 µM): 0.424; relative viability (HCC-78; first compound 0.4 µM): 0.497; relative viability (HCC-78; first compound 1.265 µM): 0.421; relative viability (HCC-78; first compound 4 µM): 0.44; relative viability (NCI-H1993; first compound 0.04 µM): 0.662; relative viability (NCI-H1993; first compound 0.1265 µM): 0.69; relative viability (NCI-H1993; first compound 0.4 µM): 0.793; relative viability (NCI-H1993; first compound 4 µM): 0.564; relative viability (NCI-H2085; first compound 0.04 µM): 0.474; relative viability (NCI-H2085; first compound 0.1265 µM): 0.485; relative viability (NCI-H2085; first compound 0.4 µM): 0.458; relative viability (NCI-H2085; first compound 1.265 µM): 0.465; relative viability (NCI-H2085; first compound 4 µM): 0.552; relative viability (NCI-H2023; first compound 0.04 µM): 0.343; relative viability (NCI-H2023; first compound 0.1265 µM): 0.355; relative viability (NCI-H2023; first compound 0.4 µM): 0.287; relative viability (NCI-H2023; first compound 1.265 µM): 0.259; relative viability (NCI-H2023; first compound 4 µM): 0.212; relative viability (NCI-H522; first compound 0.04 µM): 1.06; relative viability (NCI-H522; first compound 0.1265 µM): 1.03; relative viability (NCI-H522; first compound 0.4 µM): 1.01; relative viability (NCI-H522; first compound 1.265 µM): 0.829; relative viability (NCI-H522; first compound 4 µM): 0.851; relative viability (EPLC-272H; first compound 0.04 µM): 0.342; relative viability (EPLC-272H; first compound 0.1265 µM): 0.342; relative viability (EPLC-272H; first compound 0.4 µM): 0.335; relative viability (EPLC-272H; first compound 1.265 µM): 0.273; relative viability (EPLC-272H; first compound 4 µM): 0.0966; relative viability (HCC-15; first compound 0.04 µM): 0.772; relative viability (HCC-15; first compound 0.1265 µM): 0.792; relative viability (HCC-15; first compound 0.4 µM): 0.643; relative viability (HCC-15; first compound 1.265 µM): 0.724; relative viability (HCC-15; first compound 4 µM): 0.432; relative viability (UMC-11; first compound 0.04 µM): 0.321; relative viability (UMC-11; first compound 0.1265 µM): 0.369; relative viability (UMC-11; first compound 0.4 µM): 0.297; relative viability (UMC-11; first compound 1.265 µM): 0.348; relative viability (UMC-11; first compound 4 µM): 0.308

— the supplement of paper PMC10307832
